Reference: patent publication US8314247B2, “Hydrazone derivative” (Mitsubishi Tanabe Pharma Corporation, priority 2007, dated 2012)
pEC50: −log10 of the molar value.

biological target: T1, human-liver type GST-GK (Homo sapiens, UniProt P35557); experiment: Glucokinase activation effect (G6PDH-coupled NADPH assay); type: biochemical; settings: glucose 5 mM, ATP 5 mM, 30° C., NADPH monitored at 340 nm for 10 minutes, compound 0.01 to 100 μM (5% DMSO)
T1 construct: made in house; host or cells: E. coli
T1 sequence (P35557 1-466 isoform P35557-2): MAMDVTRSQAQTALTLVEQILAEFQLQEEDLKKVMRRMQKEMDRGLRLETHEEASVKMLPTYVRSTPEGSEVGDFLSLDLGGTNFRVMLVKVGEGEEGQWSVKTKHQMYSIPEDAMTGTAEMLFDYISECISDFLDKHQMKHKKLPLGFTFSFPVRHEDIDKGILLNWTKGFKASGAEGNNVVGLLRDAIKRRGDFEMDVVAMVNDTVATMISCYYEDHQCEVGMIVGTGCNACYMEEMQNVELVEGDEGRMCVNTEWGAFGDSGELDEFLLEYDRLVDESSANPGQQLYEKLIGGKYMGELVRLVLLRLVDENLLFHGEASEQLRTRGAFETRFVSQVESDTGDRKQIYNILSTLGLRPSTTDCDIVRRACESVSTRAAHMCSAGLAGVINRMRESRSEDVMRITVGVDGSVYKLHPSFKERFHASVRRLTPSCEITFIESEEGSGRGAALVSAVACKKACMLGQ
Procedure: A glucokinase activity was examined by measuring the amount of NADPH obtained in generating 6-phosphogluconic acid from […], not by directly measuring the generated glucose-6-phosphoric acid. The glucokinase enzyme used in the examination was human-liver type GST-GK expressed by E. Coli. The measurement of the activity was carried out by the following procedures. Specifically, 30 mM HEPES buffer (pH7.4) containing 30 mM MgCl2, 30 mM KCl, 1 mM DTT, 5 mM NADP (Nacalai), 0.7 mU/mL G6PDH (Roche 737-232 grade II from yeast) and 0.17 μL/mL GST-GK was prepared as a reaction solution. An evaluating compound dissolved in DMSO was added to the reaction solution to give a final concentration of 0.01 to 100 μM (5% DMSO). Thereto was added glucose (final concentration of 5 mM) as a substrate and was added ATP (final concentration of 5 mM) to proceed the reaction. The reaction temperature is 30° C. and a generation of NADPH was monitored by changes of absorbance of 340 nm. An increase of absorbance for 10 minutes after starting reaction was measured and the blank-corrected value was used as a GK activity (mOD/min). EC50 level was calculated by a GK activity level in an addition of the evaluating compound at each concentration.

In order of rising pEC50:
1. O=C(Nc1ncc(F)s1)/C(=N/N1CCOCC1)c1ccc(S(=O)(=O)C2CC2)cc1 [Example 2]  6.44
2. CN1CCN(S(=O)(=O)c2cnc(NC(=O)/C(=N/N3CCCC3)c3ccc(S(=O)(=O)C4CC4)cc3)s2)CC1 [Example 27]  6.66
3. CN(C)S(=O)(=O)c1cnc(NC(=O)/C(=N/N2CCCC2)c2ccc(S(=O)(=O)C3CC3)cc2)s1 [Example 64]  6.92
4. O=C(Nc1ncc(Cl)s1)/C(=N/N1CCOCC1)c1ccc(S(=O)(=O)C2CC2)cc1 [Example 42]  6.96
5. COc1ccc2nc(NC(=O)/C(=N/N3CCCC3)c3ccc(S(=O)(=O)C4CC4)cc3)sc2n1 [Example 1]  7.15
6. O=C(Nc1ncc(Br)s1)/C(=N/N1CCCC1)c1ccc(S(=O)(=O)C2CC2)cc1 [Example 24]  7.52
